Results: ChEMBL document CHEMBL3885881, “DrugMatrix”

Organism: Rattus norvegicus
Assay: DrugMatrix - Regimen: Daily Repeat
Format: toxicity, organism-based, Sprague-Dawley
Design: regimen Daily Repeat, gender Male, age 6-8 weeks
Details: in vivo, po, route oral GAVAGE, vehicle 100 % SALINE; for ABSOLUTE BASOPHIL / ABSOLUTE EOSINOPHIL / ABSOLUTE LYMPHOCYTE / ABSOLUTE MONOCYTE / ABSOLUTE SEGMENTED NEUTROPHIL / BASOPHIL / EOSINOPHIL / ERYTHROCYTE COUNT / HEMATOCRIT / HEMOGLOBIN / LEUKOCYTE COUNT / LYMPHOCYTE / MEAN CORPUSCULAR HEMOGLOBIN / MEAN CORPUSCULAR HEMOGLOBIN CONCENTRATION / MEAN CORPUSCULAR VOLUME / MONOCYTE / NEUTROPHIL / NUCLEATED RED BLOOD CELLS / PLATELET COUNT: tissue Blood; for ALANINE AMINOTRANSFERASE / ALBUMIN / ALKALINE PHOSPHATASE / ASPARTATE AMINOTRANSFERASE / BLOOD UREA NITROGEN / CARBON DIOXIDE / CHLORIDE / CHOLESTEROL / CREATINE PHOSPHOKINASE / CREATININE / GLUCOSE / LACTATE DEHYDROGENASE / LIPASE / PHOSPHORUS / POTASSIUM / SODIUM / TOTAL BILIRUBIN / TOTAL PROTEIN / URIC ACID: tissue Plasma
[1] = 0 mg/kg, 72 h, dose level Control, time 3 day
[2] = 0 mg/kg, 120 h, dose level Control, time 5 day
[3] = 11 mg/kg, 72 h, dose level High, time 3 day

## Cc1cc(CC(=O)O)n(C)c1C(=O)c1ccc(Cl)cc1 [ZOMEPIRAC]
[1]
  ABSOLUTE BASOPHIL: 0 CELLS/uL
  ABSOLUTE EOSINOPHIL: 65.67 CELLS/uL
  ABSOLUTE LYMPHOCYTE: 17283.5 CELLS/uL
  ABSOLUTE MONOCYTE: 0 CELLS/uL
  ABSOLUTE SEGMENTED NEUTROPHIL: 1284.17 CELLS/uL
  BASOPHIL: 0%
  EOSINOPHIL: 0.33%
  ERYTHROCYTE COUNT: 5.46 x10E6/uL
  HEMATOCRIT: 34.28%
  HEMOGLOBIN: 13.78 G/DL
  LEUKOCYTE COUNT: 18.63 x10E3/uL
  LYMPHOCYTE: 92.67%
  MEAN CORPUSCULAR HEMOGLOBIN: 25.3 pg
  MEAN CORPUSCULAR HEMOGLOBIN CONCENTRATION: 40.22 G/DL
  MEAN CORPUSCULAR VOLUME: 62.87 fL
  MONOCYTE: 0%
  NEUTROPHIL: 7%
  NUCLEATED RED BLOOD CELLS: 0 /100WBC
  PLATELET COUNT: 1244.83 x10E3/uL
  ALANINE AMINOTRANSFERASE: 52.83 u/L
  ALBUMIN: 4 G/DL
  ALKALINE PHOSPHATASE: 327.67 u/L
  ASPARTATE AMINOTRANSFERASE: 78.83 u/L
  BLOOD UREA NITROGEN: 13.83 mg/dL
  CARBON DIOXIDE: 26.67 mmol/L
  CHLORIDE: 99.67 MEQ/L
  CHOLESTEROL: 69 mg/dL
  CREATINE PHOSPHOKINASE: 350.17 u/L
  CREATININE: 0.21 mg/dL
  GLUCOSE: 173.83 mg/dL
  LACTATE DEHYDROGENASE: 168.33 u/L
  LIPASE: 11 u/L
  PHOSPHORUS: 12.7 mg/dL
  POTASSIUM: 6.88 MEQ/L
  SODIUM: 141.68 MEQ/L
  TOTAL BILIRUBIN: 0.22 mg/dL
  TOTAL PROTEIN: 6.02 G/DL
  URIC ACID: 1.9 mg/dL
[2]
  ABSOLUTE BASOPHIL: 0 CELLS/uL
  ABSOLUTE EOSINOPHIL: 14.83 CELLS/uL
  ABSOLUTE LYMPHOCYTE: 12880 CELLS/uL
  ABSOLUTE MONOCYTE: 90.67 CELLS/uL
  ABSOLUTE SEGMENTED NEUTROPHIL: 864.5 CELLS/uL
  BASOPHIL: 0%
  EOSINOPHIL: 0.17%
  ERYTHROCYTE COUNT: 5.83 x10E6/uL
  HEMATOCRIT: 35.87%
  HEMOGLOBIN: 14 G/DL
  LEUKOCYTE COUNT: 13.85 x10E3/uL
  LYMPHOCYTE: 92.5%
  MEAN CORPUSCULAR HEMOGLOBIN: 24.03 pg
  MEAN CORPUSCULAR HEMOGLOBIN CONCENTRATION: 39.03 G/DL
  MEAN CORPUSCULAR VOLUME: 61.53 fL
  MONOCYTE: 0.67%
  NEUTROPHIL: 6.67%
  NUCLEATED RED BLOOD CELLS: 0 /100WBC
  PLATELET COUNT: 1041.83 x10E3/uL
  ALANINE AMINOTRANSFERASE: 56 u/L
  ALBUMIN: 4.47 G/DL
  ALKALINE PHOSPHATASE: 319 u/L
  ASPARTATE AMINOTRANSFERASE: 89.17 u/L
  BLOOD UREA NITROGEN: 15.2 mg/dL
  CARBON DIOXIDE: 24 mmol/L
  CHLORIDE: 104.4 MEQ/L
  CHOLESTEROL: 69.5 mg/dL
  CREATINE PHOSPHOKINASE: 295.83 u/L
  CREATININE: 0.21 mg/dL
  GLUCOSE: 124.33 mg/dL
  LACTATE DEHYDROGENASE: 325.5 u/L
  LIPASE: 14.67 u/L
  PHOSPHORUS: 11.45 mg/dL
  POTASSIUM: 6.74 MEQ/L
  SODIUM: 151.4 MEQ/L
  TOTAL BILIRUBIN: 0.23 mg/dL
  TOTAL PROTEIN: 6.45 G/DL
  URIC ACID: 1.18 mg/dL
[3]
  ABSOLUTE BASOPHIL: 0 CELLS/uL
  ABSOLUTE EOSINOPHIL: 0 CELLS/uL
  ABSOLUTE LYMPHOCYTE: 16900 CELLS/uL
  ABSOLUTE MONOCYTE: 480 CELLS/uL
  ABSOLUTE SEGMENTED NEUTROPHIL: 3253.33 CELLS/uL
  BASOPHIL: 0%
  EOSINOPHIL: 0%
  ERYTHROCYTE COUNT: 5.38 x10E6/uL
  HEMATOCRIT: 33.2%
  HEMOGLOBIN: 13.37 G/DL
  LEUKOCYTE COUNT: 20.63 x10E3/uL
  LYMPHOCYTE: 83.67%
  MEAN CORPUSCULAR HEMOGLOBIN: 24.83 pg
  MEAN CORPUSCULAR HEMOGLOBIN CONCENTRATION: 40.27 G/DL
  MEAN CORPUSCULAR VOLUME: 61.67 fL
  MONOCYTE: 2%
  NEUTROPHIL: 14.33%
  NUCLEATED RED BLOOD CELLS: 0 /100WBC
  PLATELET COUNT: 1231.67 x10E3/uL
  ALANINE AMINOTRANSFERASE: 59 u/L
  ALBUMIN: 3.87 G/DL
  ALKALINE PHOSPHATASE: 255.33 u/L
  ASPARTATE AMINOTRANSFERASE: 72.67 u/L
  BLOOD UREA NITROGEN: 13.33 mg/dL
  CARBON DIOXIDE: 25.33 mmol/L
  CHLORIDE: 101 MEQ/L
  CHOLESTEROL: 69 mg/dL
  CREATINE PHOSPHOKINASE: 224.67 u/L
  CREATININE: 0.23 mg/dL
  GLUCOSE: 183.67 mg/dL
  LACTATE DEHYDROGENASE: 112.67 u/L
  LIPASE: 10.33 u/L
  PHOSPHORUS: 11.5 mg/dL
  POTASSIUM: 5.88 MEQ/L
  SODIUM: 141.43 MEQ/L
  TOTAL BILIRUBIN: 0.2 mg/dL
  TOTAL PROTEIN: 5.77 G/DL
  URIC ACID: 1.47 mg/dL
